Measurements: patent publication US20250092065A1, “2-(INDAZOL-5-YL)-6-(PIPERIDIN-4-YL)-1,7-NAPHTHYRIDINE DERIVATIVES AND RELATED COMPOUNDS AS MODULATORS FOR SPLICING NUCLEIC ACIDS AND FOR THE TREATMENT OF PROLIFERATIVE DISEASES” (REMIX THERAPEUTICS INC., priority 2022, published 2025)
Where two headings read alike, the source gives them in different places.

Columns and labels:
Target C = experiment: HiBiT protein abundance assay, Target C (K562 HiBiT knock-in); format: cell-based, human; conditions: HiBiT knock-in K562 cells, 24 hours, top dose 10 μM
How it was run: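 K562 HiBiT knock-in cells (10000/well) were treated 24 h at 37° C with a 10-point 3-fold dilution series (top 10 μM final, ≤0.25% DMSO). HiBiT luminescence was read after lytic LgBiT detection. Percent response used unmodified K562 and DMSO-treated knock-in controls, and IC50 came from a four-parameter fit at 50% of untreated.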

MYB = experiment: HiBiT protein abundance assay, MYB (K562 HiBiT knock-in); format: cell-based, human; conditions: HiBiT knock-in K562 cells, 24 hours, top dose 10 μM
How it was run: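 Luminescence readout: Nano-Glo HiBiT lytic detection after 24 h compound exposure of K562 HiBiT knock-in cells, 10000 cells/well. Dosing 10-pt, 3-fold, top 10 μM final. % response vs untreated parental K562 and DMSO controls; 4PL fit, IC50 = concentration giving 50% protein abundance.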

MYB mRNA = experiment: RT-qPCR splicing assay, MYB mRNA canonical (CJ) and alternative (AJ) junction; format: cell-based, human; conditions: Homo sapiens; for AC50: MYB alternative junction mRNA, read-out: MYB AJ (increase in AJ mRNA, AC50)
How it was run: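 Splice switching quantified in compound-treated A673/K562 cells after 24 h exposure (top dose 10 uM, 3-fold steps, ≤0.25% DMSO), using CJ and AJ qPCR assays run at least in duplicate. RQ derived by 2^(−ΔΔCt), then percentage response.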

K562 cells = experiment: Cell Titer Glo 2.0 cell viability (toxicity) assay, K562; conditions: 500 cells/well, 72 hours
[1] = MYB canonical junction mRNA, RT-qPCR, read-out: MYB CJ (decrease in CJ mRNA levels, IC50)
[2] = canonical junction qPCR panel, Table 4, read-out: MYB IC50 (decrease in CJ mRNA levels)

SMILES	IC50 (Target C)	IC50 (MYB)	IC50 (MYB mRNA; [1])	IC50 (MYB mRNA; [2])	AC50 (MYB mRNA; RT-qPCR)	Effect of Exemplary Compounds on Cell Viability, K562 (K562 cells)
Cc1nc2c(C)c(O)c(-c3ccc4nc(N5CCC(NC(C)C)C5)ccc4n3)cc2o1 (stereo not drawn) [Compound 312, 6-{6-[3-(isopropylamino)pyrrolidin-1-yl]-1,5-naphthyridin-2-yl}-2,4-dimethyl-1,3-benzoxazol-5-ol]	< 100 nM	< 100 nM	< 100 nM	< 100 nM	< 100 nM	A (A represents <100 nM)
Cn1cc2cc(-c3ccc4nc(N5CCC(NC6CCC6)C5)ccc4n3)c(O)c(F)c2n1 (stereo not drawn) [Compound 315, 5-{6-[3-(cyclobutylamino)pyrrolidin-1-yl]-1,5-naphthyridin-2-yl}-7-fluoro-2-methylindazol-6-ol]	< 100 nM	< 100 nM	< 100 nM	< 100 nM	< 100 nM	A (A represents <100 nM)
Cc1c(O)c(-c2ccc3nc(N4CCC(NC(C)C)C4)ccc3n2)cc2cn(C)nc12 (stereo not drawn) [Compound 318, 5-{6-[3-(isopropylamino)pyrrolidin-1-yl]-1,5-naphthyridin-2-yl}-2,7-dimethylindazol-6-ol]	< 100 nM	< 100 nM	< 100 nM	< 100 nM	< 100 nM	A (A represents <100 nM)
Cc1c(O)c(-c2ccc3nc(N4CC[C@H](NC(C)C)C4)ccc3n2)cc2cn(C)nc12 [Compound 320]	< 100 nM	< 100 nM	< 100 nM	< 100 nM	< 100 nM	B (B represents 100-1000 nM)
Cc1nc2c(F)c(O)c(-c3ccc4nc(N5CCC(NC6(C)CC6)C5)ccc4n3)cc2o1 (stereo not drawn) [Compound 325, 4-fluoro-2-methyl-6-(6-{3-[(1-methylcyclopropyl)amino]pyrrolidin-1-yl}-1,5-naphthyridin-2-yl)-1,3-benzoxazol-5-ol]	< 100 nM	< 100 nM	< 100 nM	< 100 nM	< 100 nM	B (B represents 100-1000 nM)
Cc1nc2c(F)c(O)c(-c3ccc4nc(N5CCC(NC(C)C)C5)ccc4n3)cc2o1 (stereo not drawn) [Compound 328, 4-fluoro-6-{6-[3-(isopropylamino)pyrrolidin-1-yl]-1,5-naphthyridin-2-yl}-2-methyl-1,3-benzoxazol-5-ol]	< 100 nM	< 100 nM	< 100 nM	< 100 nM	< 100 nM	A (A represents <100 nM)
CN[C@@H]1CCN(c2ccc3nc(-c4cc(F)c5nc(C)cn5c4)ncc3n2)C1 [Compound 331, (3R)-1-(2-{8-fluoro-2-methylimidazo[1,2-a]pyridin-6-yl}pyrido[3,2-d]pyrimidin-6-yl)-N-methylpyrrolidin-3-amine]	100 to 1000 nM	100 to 1000 nM	< 100 nM	< 100 nM	100 to 1000 nM	B (B represents 100-1000 nM)
CN[C@H]1CCN(c2ccc3nc(-c4cc(F)c5nc(C)cn5c4)ncc3n2)C1 [Compound 332, (S)-1-(2-(8-fluoro-2-methylimidazo[1,2-a]pyridin-6-yl)pyrido[3,2-d]pyrimidin-6-yl)-N-methylpyrrolidin-3-amine]	100 to 1000 nM	100 to 1000 nM	100 to 1000 nM	100 to 1000 nM	100 to 1000 nM	B (B represents 100-1000 nM)
CC(C)(C)NC1CCN(c2ccc3nc(-c4cc5oc(C6CC6)nc5cc4O)ccc3n2)C1 (stereo not drawn) [Compound 333, 6-{6-[3-(tert-butylamino)pyrrolidin-1-yl]-1,5-naphthyridin-2-yl}-2-cyclopropyl-1,3-benzoxazol-5-ol]	100 to 1000 nM	100 to 1000 nM	100 to 1000 nM	100 to 1000 nM	100 to 1000 nM	B (B represents 100-1000 nM)
COCc1nc2cc(O)c(-c3ccc4nc(N5CCC(NC(C)(C)C)C5)ccc4n3)cc2o1 (stereo not drawn) [Compound 334, 6-{6-[3-(tert-butylamino)pyrrolidin-1-yl]-1,5-naphthyridin-2-yl}-2-(methoxymethyl)-1,3-benzoxazol-5-ol]	100 to 1000 nM	100 to 1000 nM	100 to 1000 nM	100 to 1000 nM	100 to 1000 nM	B (B represents 100-1000 nM)
COc1cc2nc(C3COC3)oc2cc1-c1ccc2nc(N3CCC(NC(C)(C)C)C3)ccc2n1 (stereo not drawn) [Compound 335]	1000 to 10000 nM	1000 to 10000 nM	1000 to 10000 nM	1000 to 10000 nM	1000 to 10000 nM	C (C represents 1000-9999 nM)

Second part, led by results:

IC50 (Target C)	IC50 (MYB)	IC50 (MYB mRNA; [1])	IC50 (MYB mRNA; [2])	SMILES	AC50 (MYB mRNA; RT-qPCR)	Effect of Exemplary Compounds on Cell Viability, K562 (K562 cells)
< 100 nM	< 100 nM	100 to 1000 nM	100 to 1000 nM	CC(C)(C)NC1CCN(c2ccc3nc(-c4cc5oc(CO)nc5cc4O)ccc3n2)C1 (stereo not drawn) [Compound 336, 6-{6-[3-(tert-butylamino)pyrrolidin-1-yl]-1,5-naphthyridin-2-yl}-2-(hydroxymethyl)-1,3-benzoxazol-5-ol]	100 to 1000 nM	A (A represents <100 nM)
100 to 1000 nM	< 100 nM	< 100 nM	< 100 nM	CNC1CCN(c2ccc3nc(-c4cc5cn(C)nc5c(C)c4O)ncc3n2)C1 (stereo not drawn) [Compound 337, 2,7-dimethyl-5-{6-[3-(methylamino)pyrrolidin-1-yl]pyrido[3,2-d]pyrimidin-2-yl}indazol-6-ol]	< 100 nM	A (A represents <100 nM)
100 to 1000 nM	< 100 nM	< 100 nM	< 100 nM	Cc1c(O)c(-c2ncc3nc(N4CCNCC4)ccc3n2)cc2cn(C)nc12 [Compound 338, 2,7-dimethyl-5-[6-(piperazin-1-yl)pyrido[3,2-d]pyrimidin-2-yl]indazol-6-ol]	100 to 1000 nM	B (B represents 100-1000 nM)
100 to 1000 nM	100 to 1000 nM	100 to 1000 nM	100 to 1000 nM	Cc1nc2cc(O)c(-c3ccc4nc(N5CCC(NC(C)(C)C)C5)ccc4n3)cc2n1C (stereo not drawn) [Compound 339, 6-{6-[3-(tert-butylamino)pyrrolidin-1-yl]-1,5-naphthyridin-2-yl}-1,2-dimethyl-1,3-benzodiazol-5-ol]	100 to 1000 nM	B (B represents 100-1000 nM)
100 to 1000 nM	100 to 1000 nM	100 to 1000 nM	100 to 1000 nM	Cc1nc2cc(-c3ccc4nc(N5CCC(NC(C)(C)C)C5)ccc4n3)c(O)cc2n1C (stereo not drawn) [Compound 340, 6-{6-[3-(tert-butylamino)pyrrolidin-1-yl]-1,5-naphthyridin-2-yl}-2,3-dimethyl-1,3-benzodiazol-5-ol]	100 to 1000 nM	A (A represents <100 nM)
< 100 nM	100 to 1000 nM	100 to 1000 nM	100 to 1000 nM	Cn1cc2cc(-c3ccc4nc(N5CCC(NC67CC(O)(C6)C7)C5)ccc4n3)c(O)cc2n1 (stereo not drawn) [Compound 341, 5-{6-[3-({3-hydroxybicyclo[1.1.1]pentan-1-yl}amino)pyrrolidin-1-yl]-1,5-naphthyridin-2-yl}-2-methylindazol-6-ol]	100 to 1000 nM	B (B represents 100-1000 nM)
